According to ChEMBL document CHEMBL3124761, “Synthesis and biological evaluation of N,N'-squaramides with high in vivo efficacy and low toxicity: toward a low-cost drug against Chagas disease” (J Med Chem, 2014):
Calls of active or inactive are those of the source. The calls are words filed in the database; no cut-off is given here.

Legend:
[1] = Selectivity index, ratio of IC50 for African green monkey Vero cells to IC50 for epimastigote stage of Trypanosoma cruzi IRHOD/CO/2008/SN3; assay type: toxicity, cell-based; conditions: read-out: Ratio IC50
[2] = Selectivity index, ratio of IC50 for African green monkey Vero cells to IC50 for amastigote stage of Trypanosoma cruzi IRHOD/CO/2008/SN3 infected in African green monkey Vero cells; assay type: toxicity, cell-based; conditions: read-out: Ratio IC50
Vero = assay: Cytotoxicity against African green monkey Vero cells assessed as cell viability after 72 hrs by propidium iodide/fluorescein diacetate staining-based flow cytometric analysis; conditions: Chlorocebus sabaeus
Trypanosoma cruzi [3] = assay: Antitrypanosomal activity against epimastigote stage of Trypanosoma cruzi IRHOD/CO/2008/SN3 assessed as parasite growth inhibition after 72 hrs by Neubauer hemocytometric chamber analysis; assay type: functional, organism-based; conditions: IRHOD/CO/2008/SN3, 72 h
Trypanosoma cruzi [4] = assay: Antitrypanosomal activity against amastigote stage of Trypanosoma cruzi IRHOD/CO/2008/SN3 infected in African green monkey Vero cells assessed as parasite growth inhibition after 72 hrs by Giemsa staining-based microscopic analysis; assay type: functional, organism-based; conditions: IRHOD/CO/2008/SN3, Vero
Trypanosoma cruzi [5] = assay: Trypanocidal activity against metacyclic trypomastigote stage of Trypanosoma cruzi infected in BALB/c albino mouse acute chagas disease model assessed as reduction of parasite burden at 25 mg/kg, ip administered on day 7 to 12 post-infection measured on day 14 by ELISA; assay type: functional, organism-based; set-up: dose 25 mg/kg
Trypanosoma cruzi [6] = assay: Trypanocidal activity against metacyclic trypomastigote stage of Trypanosoma cruzi infected in BALB/c albino mouse acute chagas disease model assessed as inhibition of parasitemia at 25 mg/kg, ip administered on day 7 to 12 post-infection measured every 2 days until day 40 […] relative to control; assay type: functional; conditions: route intraperitoneal
Trypanosoma cruzi [7] = assay: (§1) Antitrypanosomal activity against amastigote stage of Trypanosoma cruzi IRHOD/CO/2008/SN3 infected in African green monkey Vero cells assessed as decrease in infection rate at IC25 preincubated for 12 hrs followed by compound washout measured every 48 hrs for 10 days by Neubauer hemocytometric chamber analysis relative to control; assay type: functional
Trypanosoma cruzi [8] = assay: Antitrypanosomal activity against trypomastigote stage of Trypanosoma cruzi IRHOD/CO/2008/SN3 assessed as reduction of trypomastigote number per mililiter of culture medium at IC25 preincubated for 12 hrs followed by compound washout measured every 48 hrs for 10 days by Neubauer hemocytometric chamber analysis relative to control; assay type: functional
Trypanosoma cruzi [9] = assay: as §1, with “reduction of amastigote number per cell” for “decrease in infection rate”; assay type: functional

SMILES	IC50 (Trypanosoma cruzi [3])	IC50 (Trypanosoma cruzi [4])	selectivity ratio [1]	selectivity ratio [2]	IC50 (Vero)	Activity (Trypanosoma cruzi [5])	inhibition in vivo at 25 mg/kg (Trypanosoma cruzi [6])	inhibition (INH) (Trypanosoma cruzi [7])	inhibition (INH) (Trypanosoma cruzi [8])	inhibition (INH) (Trypanosoma cruzi [9])
CCCCCCCCCCCCCCCCNc1c(NCCN(C)C)c(=O)c1=O	49.8 µM	22.4 µM	1.8	3.4	90.1 µM					
CN1CCCNc2c(c(=O)c2=O)NCCCN(C)CCCNc2c(c(=O)c2=O)NCCC1	21.8 µM	31.2 µM	5.1	3.5	111 µM					
O=C(Cn1ccnc1[N+](=O)[O-])NCc1ccccc1 [BENZNIDAZOLE]						Active	26%	20%	21%	15%
CCCCNc1c(NCCCC(=O)O)c(=O)c1=O	17.3 µM	66.9 µM	1.2	0.3	21.6 µM					
CCCCNc1c(NCC[N+](C)(C)C)c(=O)c1=O	107 µM	38.5 µM	0.5	1.5	57.6 µM					

Second part, led by results:

IC50 (Trypanosoma cruzi [3])	IC50 (Trypanosoma cruzi [4])	SMILES	selectivity ratio [1]	selectivity ratio [2]	IC50 (Vero)	Activity (Trypanosoma cruzi [5])	inhibition in vivo at 25 mg/kg (Trypanosoma cruzi [6])	inhibition (INH) (Trypanosoma cruzi [7])	inhibition (INH) (Trypanosoma cruzi [8])	inhibition (INH) (Trypanosoma cruzi [9])
96.9 µM	34.7 µM	O=c1c(NCc2ccccc2)c(NC2CCN(Cc3ccccc3)CC2)c1=O	3.5	9.7	338 µM					
26.3 µM	18.4 µM	CCOC(=O)c1ccc(Nc2c(O)c(=O)c2=O)cc1	0.8	1.2	21.5 µM					
119 µM	43.9 µM	C[N+](C)(C)CCNc1c(NCc2cccc(CNc3c(NCC[N+](C)(C)C)c(=O)c3=O)c2)c(=O)c1=O	0.6	1.7	73.1 µM					
35.7 µM	23.8 µM	CCCCNc1c(NCC(=O)O)c(=O)c1=O	1.5	2.3	54.8 µM					
